What was measured:
[1] = target: CFTR channel (Homo sapiens, UniProt P13569); assay: 125I radioactive iodide efflux in CHO-CFTR(+) cells; assay type: cell-based; parameters: expressed in transfected cells; host or cells: CHO (Chinese hamster ovary) cells, CHO-CFTR(+); conditions: CHO-CFTR(+) cells; n-alkanols 1 mM, FSK 1 μM, A23187 2 μM, α-GA 10 and 100 μM
Procedure: The cells are cultured in 24-well plates with a dilution to 1/10 after passage. […] The operation is repeated every 30 s for 2 to 6 min. […] All the samples are counted in a gamma counter (Kontron). The precipitated proteins are solubilized in 0.1N NaOH and quantified using a calorimetric test.
The tracer contained in the cell layer at the beginning of the efflux is calculated as the sum of the samples and of the extracts counted. The efflux curves are constructed by expressing the percentage of the content remaining in the cell layer (I %) with respect to time. The stimulated or nonstimulated efflux rate constants (k, min^−1) are determined by smoothing the efflux curves to a monoexponential function I %=100*exp(−kt) using a linear regression of the neperian logarithm of the data, k is used to calculate the iodide released into the medium with respect to time. The hypothesis is made that, in the presence of a stimulator, the efflux is the sum of two iodide effluxes occurring in parallel: a basal efflux and a stimulated efflux characterized, respectively, by the constants kb and ks. The total net efflux is then described by the equation It^%=100*(1−exp(−ktt)) where kt is the sum of kb and ks. Finally, ks calculated as kt−kb is used to establish a dose-response relationship for antagonists. The data is expressed as means ±SD, and the t-test is used to determine the significances. The concentration-response curves for agonists or for antagonists are smooth using the hyperbolic equation Y=Ymax*X/(EC5C+X), where Y is the response. Y begins at the basal level and progresses to the plateau (Ymax), X is the concentration and the half-effect values (EC are calculated using GraphPad Prism v3.0 (GraphPad software)).

[2] = system: CHO cells; assay: ATP-induced calcium response (cellular uncoupling) in CHO cells; assay type: cell-based, Chinese hamster; conditions: α-GA 10 to 100 μM, octan-1-ol 1 mM
Procedure: The Ca^2+ measurements are carried out in the presence of fura-2 (impermeant fluorescent probe) which binds […]. The cells are incubated in serum-free DMEM/F12 culture medium in the presence of the permeant form of fura-2 (fura-2/AM, 2.5 μM) for 1 h at 37° C. The cells, placed on the platform of an epifluorescent microscope (Olympus) (20× objective), are perfused with the solutions to be tested (e.g. ATP, octanol). They are sequentially illuminated at 340 nm and 380 nm and the fluorescence emitted (F) is measured at 510 nm. It is detected via a 12-bit CCD camera (Sony) connected to a data processing computer unit (TILL Photonics). The intracellular Ca^2+ concentration [Ca^2+]i is calculated using the Grynckiewicz equation (Grynckiewicz et al., 1985): [Ca^2+]i=Kdi *(R−Rmin/Rmax−R), based on the ratiometric analysis R (340/380 nm) of the fluorescence (TILL Vision); Rmax and Rmin denote the ratio of fluorescence measured in the presence or in the absence of Ca^2+.

CFTR channel, sequence (P13569 whole entry): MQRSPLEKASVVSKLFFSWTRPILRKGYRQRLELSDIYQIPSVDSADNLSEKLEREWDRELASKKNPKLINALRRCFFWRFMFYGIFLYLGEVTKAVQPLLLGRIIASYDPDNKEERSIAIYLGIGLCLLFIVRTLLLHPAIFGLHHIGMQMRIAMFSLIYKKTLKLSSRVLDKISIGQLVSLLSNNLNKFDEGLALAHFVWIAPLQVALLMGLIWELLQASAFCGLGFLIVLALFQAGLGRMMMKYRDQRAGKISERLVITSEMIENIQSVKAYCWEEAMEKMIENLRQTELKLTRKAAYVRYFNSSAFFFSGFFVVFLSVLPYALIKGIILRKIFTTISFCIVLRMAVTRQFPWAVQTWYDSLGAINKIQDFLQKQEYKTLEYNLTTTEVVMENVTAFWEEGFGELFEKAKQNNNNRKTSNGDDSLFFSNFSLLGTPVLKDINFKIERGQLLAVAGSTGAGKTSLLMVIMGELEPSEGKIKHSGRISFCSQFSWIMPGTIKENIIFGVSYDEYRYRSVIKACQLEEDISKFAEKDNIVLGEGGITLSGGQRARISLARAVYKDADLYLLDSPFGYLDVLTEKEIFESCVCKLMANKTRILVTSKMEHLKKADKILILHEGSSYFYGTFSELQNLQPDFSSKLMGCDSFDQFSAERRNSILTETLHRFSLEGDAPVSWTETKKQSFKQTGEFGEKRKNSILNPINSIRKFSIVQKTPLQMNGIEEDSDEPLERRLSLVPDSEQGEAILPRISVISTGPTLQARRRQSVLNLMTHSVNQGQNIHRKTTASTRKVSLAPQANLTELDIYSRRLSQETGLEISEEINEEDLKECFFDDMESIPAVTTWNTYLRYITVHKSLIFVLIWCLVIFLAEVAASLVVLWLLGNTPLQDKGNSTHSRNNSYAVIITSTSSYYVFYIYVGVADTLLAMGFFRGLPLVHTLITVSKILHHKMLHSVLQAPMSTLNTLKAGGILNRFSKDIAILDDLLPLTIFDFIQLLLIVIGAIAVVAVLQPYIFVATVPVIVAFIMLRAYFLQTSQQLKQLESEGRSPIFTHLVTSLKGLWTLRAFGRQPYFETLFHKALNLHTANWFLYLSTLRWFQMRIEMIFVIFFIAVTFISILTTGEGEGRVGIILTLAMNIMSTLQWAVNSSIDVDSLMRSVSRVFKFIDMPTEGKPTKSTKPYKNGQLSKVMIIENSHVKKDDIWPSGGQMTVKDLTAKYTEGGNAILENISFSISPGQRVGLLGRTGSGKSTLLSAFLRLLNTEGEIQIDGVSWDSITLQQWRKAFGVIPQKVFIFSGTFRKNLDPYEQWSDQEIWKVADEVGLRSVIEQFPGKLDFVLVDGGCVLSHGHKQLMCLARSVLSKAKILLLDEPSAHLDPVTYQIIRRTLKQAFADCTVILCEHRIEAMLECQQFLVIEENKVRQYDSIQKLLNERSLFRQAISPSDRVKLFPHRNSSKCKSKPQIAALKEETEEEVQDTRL

activation of CFTR (125I efflux), in words [1]: no effect
SMILES: CC1(C)[C@@H](O)CC[C@]2(C)[C@H]3C(=O)C=C4[C@H]5C[C@@](C)(C(=O)O)CC[C@]5(C)CC[C@@]4(C)[C@]3(C)CC[C@@H]12 [α-GA, 18-alpha glycerrhetinic acid, reference compound]
cellular uncoupling shown by ATP-induced calcium response [2]: clearly uncouples the cells

Reference: patent publication US20070191493A1, “Use of n-alkanols as activators of the cftr channel” (priority 2003, published 2007)
